From PubChem BioAssay (NCI)
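Briefly, cells in 96-well plates were exposed to five compound concentrations for 48 h, and endpoints were estimated by linear interpolation. GI50 = concentration required for 50% inhibition of growth. TGI denotes the concentration required for complete inhibition of growth.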

How the values were obtained:
Assay in all cases: inhibition of tumour cell growth, NCI panel, 48 h
[1] = test system: MALME-3M melanoma
[2] = test system: K-562 leukemia
[3] = test system: A549 NSCLC
[4] = test system: LOX IMVI melanoma
[5] = test system: NCI-H522 lung
[6] = test system: SK-MEL-2 melanoma
[7] = test system: 786-0 renal
[8] = test system: DU-145 prostate
[9] = test system: SF-295 CNS
[10] = test system: BT-549 breast

| Structure (SMILES) | TGI [1] [µM] | TGI [2] [µM] | TGI [3] [µM] | TGI [4] [µM] | TGI [5] [µM] | TGI [6] [µM] | TGI [7] [µM] | TGI [8] [µM] | TGI [9] [µM] | TGI [10] [µM] | GI50 [1] [µM] | GI50 [8] [µM] | GI50 [9] [µM] | GI50 [2] [µM] | GI50 [3] [µM] | GI50 [4] [µM] | GI50 [5] [µM] | GI50 [6] [µM] | GI50 [7] [µM] | GI50 [10] [µM] |
| --- | --- | --- | --- | --- | --- | --- | --- | --- | --- | --- | --- | --- | --- | --- | --- | --- | --- | --- | --- | --- |
| Cc1ccc(S(=O)(=O)N/N=C(/c2nc3ccc([N+](=O)[O-])cc3[nH]c2=O)C(O)c2ccc(C(O)/C(=N\NS(=O)(=O)c3ccc(C)cc3)c3nc4ccc([N+](=O)[O-])cc4[nH]c3=O)cc2)cc1 (stereo not drawn) | > 100 | > 100 | > 100 | > 100 | 55.7 | > 100 | > 100 |  |  |  |  |  |  |  |  |  |  |  |  |  |
| CCOC(=O)COc1ccc2c(C)cc(=O)oc2c1 | > 100 | > 100 | > 100 | > 100 | > 100 | > 100 | > 100 | > 100 | > 100 | > 100 |  |  |  |  |  |  |  |  |  |  |
| CC(C)(C)C(C#N)(C#N)c1ccc(C(C#N)(C#N)C(C)(C)C)nn1 | > 100 | > 100 | > 100 | > 100 | > 100 | > 100 | > 100 |  | > 100 |  |  |  |  |  |  |  |  |  |  |  |
| ClC(Cl)[Si]12OCCN(CCO1)CCO2 | > 100 | > 100 | > 100 |  | > 100 | > 100 | > 100 |  | > 100 |  |  |  |  |  |  |  |  |  |  |  |
| CCc1nc(N)nc(N)c1-c1ccc(N2CCNCC2)cc1 |  | > 87.2 | > 100 | > 100 | > 100 | > 100 | > 100 | > 100 | > 100 | > 100 |  |  |  |  |  |  |  |  |  |  |
| C=C1C(=O)OC2/C=C(/C)C(OC(C)=O)C/C=C(\C)C(OC(=O)C3(C)OC3C)C(O)C12 (stereo not drawn) |  | > 100 | > 100 | > 100 | 28.6 | > 100 | > 100 | > 100 | > 100 | > 100 |  |  |  |  |  |  |  |  |  |  |
| NS(=O)(=O)OCCCCCCCOS(N)(=O)=O | 1050 | 2110 | 729 | 724 | 916 | 836 | 571 | 873 | 1020 | 430 |  |  |  |  |  |  |  |  |  |  |
| COC(=O)C=Cc1ccc2nncnc2c1 (mixture of isomers) |  | > 100 | 56.4 | > 100 | > 100 | > 100 | > 100 | > 100 | 64.3 | > 100 |  |  |  |  |  |  |  |  |  |  |
| Brc1ccc2ns[s+]c2c1 | > 86 | > 100 | > 100 | > 100 | > 100 | > 100 | > 100 |  | > 100 |  |  |  |  |  |  |  |  |  |  |  |
| O=C(Nc1nc2c(ncn2C2OC(CO)C(O)C2O)c(=O)[nH]1)c1ccccc1 (stereo not drawn) | > 100 | > 100 | > 100 | > 100 | > 100 | > 100 | > 100 |  | > 100 |  |  |  |  |  |  |  |  |  |  |  |
| O=C(COc1cccc(/C=C2\CSc3ccccc3C2=O)c1)Nc1nccs1 | 3.11 | > 100 | 18.3 | 3.06 | 3.27 | 3.1 | 13 | 3.99 | 3.59 |  | 1.54 | 1.94 | 2.09 | 2.79 | 5.73 | 1.58 | 1.55 | 1.22 | 3.7 |  |
| C=CCc1cc(OC)c2c(c1)C(OC)CC(c1ccc(OC)c(OC)c1)O2 (stereo not drawn) | > 100 | > 100 | > 100 | > 100 |  | > 100 | > 100 |  | > 100 |  |  |  |  |  |  |  |  |  |  |  |
| CC(=O)NNc1nc(C)c(C(=O)NNC(=O)C(=O)Nc2ccc(Cl)cc2Cl)s1 | > 100 | 50.2 | > 100 | > 100 | 52.8 | > 100 | > 100 |  | > 100 |  |  |  |  |  |  |  |  |  |  |  |
| O=P(O)(O)C1(P(=O)(O)O)CC1 | > 100 | > 100 | > 100 | > 100 | > 100 | > 100 | > 100 |  | > 100 |  |  |  |  |  |  |  |  |  |  |  |
| N=c1c2c(=N)n3c(nc2nc2n1-c1ccccc1Sc1ccccc1-2)sc1cc(Cl)ccc13 |  | > 100 | > 100 | 14.6 | 6.99 | 13.9 | > 100 | > 100 | 9.52 | > 100 |  | 3.55 | 1.82 | 1.62 | 2.25 | 2.7 | 1.2 | 1.44 | 3.64 | 3.97 |
| CN(CCCNC(=O)CCOCCOCCOCCNC(=O)Cc1ccc2ccc3cccc4ccc1c2c34)CCCNc1cc(-c2ccc3ccccc3c2)nc2ccccc12 |  | 0.146 | 1.74 | 0.333 |  | 13.2 | 1.11 | 1.2 | 3.75 | 4.68 |  | 0.561 | 1.57 | 0.0668 | 0.629 | 0.176 |  | 4.84 | 0.615 | 2.01 |
| Cc1c(/C=N/N(C)C)oc2c1cc(O)c1ncccc12 | 84.5 | > 100 | > 100 | 45.2 | 8.58 | 44.5 | > 100 |  | 97.9 |  |  |  |  |  |  |  |  |  |  |  |
| CCOC(=O)C1(C)CCCCC(=O)N1 (stereo not drawn) | > 100 | > 100 | > 100 | > 100 |  |  | > 100 |  | > 100 |  |  |  |  |  |  |  |  |  |  |  |
| CC1(c2ccc(Cl)cc2)C2C(=O)NC(=O)C1C(=O)NC2=O (stereo not drawn) | > 100 | > 100 | > 100 | > 100 | > 100 | > 100 | > 100 |  | > 100 |  |  |  |  |  |  |  |  |  |  |  |
| CC(=O)NC(CC(C)C)C(=O)NC(Cc1ccccc1)C(=S)N1CCCC1 (stereo not drawn) | > 100 | > 100 | > 100 | > 100 | > 100 | > 100 | > 100 |  | > 100 |  |  |  |  |  |  |  |  |  |  |  |
| Nc1c(Cl)ncnc1NCCCNc1ncnc(Cl)c1N |  | > 100 | > 100 | > 100 | > 100 | > 100 | > 100 |  | > 100 |  |  |  |  |  |  |  |  |  |  |  |
| CC1=C(C(=O)Nc2cc(F)c(F)cc2F)C(c2ccc([N+](=O)[O-])cc2)C(C(=O)Nc2cc(F)c(F)cc2F)=C(C)N1 | > 100 | > 100 | > 100 | > 100 | 55.6 | > 100 | > 100 |  | > 100 |  |  |  |  |  |  |  |  |  |  |  |
| CC(=O)C1=C(O)C2C3c4c[nH]c5cccc(c45)CC3C(C)(C)N2C1=O (stereo not drawn) | > 100 | > 100 | > 100 | 67.3 | 63.4 | 44.6 | > 100 |  | > 100 |  |  |  |  |  |  |  |  |  |  |  |
